Consider eleven molecules from article PMC2120445 (The Journal of Cell Biology, 1995).

Read-outs that look alike come from different tables or passages of the source. Where no end group is shown, it is not given here.

The test system of one data set is Schwann cells. The note with it: cited from earlier work; for promotion of Schwann cell proliferation: rat sciatic nerve Schwann cells in culture, ref Eccleston, 1992, Ratner et al., 1988.
For data set [1], the system named is Schwann cells (rat sciatic nerve). The class given is cell-based. The settings on record: for BrdU incorporation compared with forskolin: agent alone, without PDGF, pulsatile regime; for doubling time / cells synthesizing DNA in 24 h: in the presence of PDGF; for doubling time: estimated from cells synthesizing DNA; for cells synthesizing DNA in 24 h: increased from 10%, Discussion.

Data set [2] deals with sciatic nerve fibroblasts. The experiment in a line: Proliferation of sciatic nerve fibroblasts induced by PDGF. The class given is cell-based, rat. The settings on record: Kahn and Mudge, unpublished results.
Data set [3] deals with Schwann cells (rat sciatic nerve). The class given is cell-based. The note with it: for doubling time: estimated from BrdU incorporation.
The next data set relates to PDGF receptor. The settings on record: ref Weinmaster and Lemke, 1990, cited from earlier work.
A further data set deals with erbB2 receptor. The note with it: Schwann cells; ref Weinmaster and Lemke (1990), Mudge, 1993 (review); cited from earlier work.
A further data set relates to cultured Schwann cells. The note with it: ref Yasuda et al., 1988; cited from earlier work.
Data set [4] concerns Schwann cells (rat sciatic nerve). The class given is cell-based. The settings on record: for attenuation (desensitization) of cAMP response with time: Schwann cells, even in the presence of IBMX.
Data set [5] concerns neutral endopeptidase 24.11. The settings on record: ref Davies et al., 1992; Turner, A. J., personal communication; cited from earlier work.
Data set [6] relates to sciatic nerve fibroblasts. The experiment in a line: Intracellular cAMP accumulation in sciatic nerve fibroblasts. The class given is cell-based, rat. The note with it: for dependence of cAMP effect on culture age: with IBMX, 2 d versus 7 d cultures, Fig. 2.
The test system of another data set is macrophages. The note with it: ref Wiik, 1989; Vignery et al., 1991; cited from earlier work.
Where [7] appears, read: cultured Schwann cells, ref Raff et al., 1978a,b, Ridley et al., 1989, Davis and Stroobant, 1990, Weinmaster and Lemke, Chen et al., 1991, Stewart et al., Goodearl et al., 1993, Marchionni et al.
Where [8] appears, read: with 10 ng/ml PDGF-BB, pulsatile, Fig. 6 b.

With `CCCC(=O)Nc1ncnc2c1ncn2[C@@H]1O[C@@H]2COP(=O)(O)O[C@H]2[C@H]1OC(=O)CCC` [dibutyryl cAMP], in the data set on Schwann cells (setting [7]), the “potentiation of response to growth factors” value (shortened to “potentiation of response”) is reported as “greatly potentiated”.
As for `C=C[C@@]1(C)CC(=O)[C@]2(O)[C@@]3(C)[C@@H](O)CCC(C)(C)[C@@H]3[C@H](O)[C@H](OC(C)=O)[C@@]2(C)O1` [forskolin], the “increase in BrdU incorporation, together with PDGF” value in data set [1] (fold, with 10 ng/ml PDGF-BB, pulsatile, every 3 h with 3-h wash-out, Fig. 6 b) was “eightfold”. The “type of interaction with PDGF” value in data set [1] (setting [8]) is listed as “synergistic”. Further, in [2], the “effect on PDGF-induced proliferation of fibroblasts” value is given as “inhibits the proliferation of sciatic nerve fibroblasts induced by PDGF”. In the data set on Schwann cells (1 µM forskolin and PDGF, ref Stewart et al., 1991), the DNA synthesis result is “no DNA synthesis”. Further, the “cells incorporating BrdU in 24 h” value in the data set on Schwann cells (PDGF and 10 µM forskolin, ref Stewart et al., 1991) is 6%. The “potentiation of response” value with Schwann cells (setting [7]) is listed as “greatly potentiated”. Besides, the doubling time in [3] (1 µM forskolin with PDGF, continuous) is reported as ~ 2 d. Besides, the “Schwann cells incorporating BrdU in 24 h” value in data set [3] (1 µM forskolin with PDGF, continuous, range in at least 10 different experiments) is reported as 40-60%. Further, in the data set with PDGF receptor, the “synthesis of PDGF beta receptor” value is listed as “increased synthesis” and the “treatment time required to increase PDGF beta receptor mRNA” value was 12 to 24 h. The “effect of a single 3-h pulse on PDGF beta receptor mRNA” value in the data set on PDGF receptor (single 3-h pulse) is “ineffective”. Further, the erbB2 receptor expression result in the data set on erbB2 receptor is on record as “upregulated”.
As to `CC(C)NCC(O)c1ccc(O)c(O)c1` (stereo not shown) [isoproterenol], the “plateau of cAMP effect” value in the data set on cultured Schwann cells is on record as “did not plateau even at 10-4 M”. Also, the “dependence of cAMP response on culture age” value in [4] (3-d versus 8-d cells, 5 min, Fig. 1) is listed as “more pronounced in 8-d cells”. Also, the “attenuation (desensitization) of cAMP response with time” value in data set [4] (Fig. 4 a) is listed as “declined with time in similar fashion to the CGRP response”. Besides, in [1] (Fig. 6 b), the “BrdU incorporation compared with forskolin” value is listed as “comparable to the effect of forskolin”. For the same molecule, in data set [1] (pulsatile), the doubling time is on record as ~ 4 d and the “cells synthesizing DNA in 24 h” value is given as around 25%. Besides, the “type of interaction with PDGF” value in data set [1] (setting [8]) is listed as “simply additive”.
Turning to “FGF-1: growth factor, literature mitogen”, the “promotion of Schwann cell proliferation” value in the data set on Schwann cells is “promote the proliferation”.
With “FGF-2: growth factor, literature mitogen”, the “promotion of Schwann cell proliferation” value with Schwann cells is “promote the proliferation”.
As for calcitonin gene-related peptide [CGRP], the “substrate of neutral endopeptidase 24.11” value in [5] was “very good substrate”. The “attenuation of cAMP response” value in [6] (compared with Schwann cells, 5 x 10-s M CGRP (so in the source), 200 µM IBMX, Fig. 4 b) is on record as “even more rapid”. The “desensitization at lower dose” value in [4] (10^-8 M CGRP) is “desensitization was reduced with this dose”. The “magnitude of cAMP response” value in data set [4] (5 min with 5 x 10^-8 M CGRP without IBMX, Discussion) is listed as 8-10 fold. For the same molecule, the “attenuation (desensitization) of cAMP response with time” value in data set [4] (Fig. 4 a) is “declined rapidly, even in the presence of IBMX”. For the same molecule, in data set [4] (maximal dose of CGRP, declined even in the presence of IBMX, Fig. 4 a), the “cAMP over basal after 1 h” value is “twofold”. Also, the “increase in cAMP over basal after 5 min” value in [4] (maximal dose of CGRP, without IBMX, high density, 4 d in defined medium, Fig. 4 a) was “eightfold”. Moreover, the “activity of CGRP after 3 h incubation with Schwann cells” value in data set [4] (medium from Schwann cells incubated with CGRP for 3 h transferred to fresh cultures, 5 min, Fig. 5) is “a comparable stimulation of cAMP”. Further, in [1] (Fig. 6 b), the “BrdU incorporation compared with forskolin” value was “comparable to the effect of forskolin”. Besides, in [1] (pulsatile), the doubling time is ~ 4 d and the “cells synthesizing DNA in 24 h” value is listed as around 25%. Besides, the “type of interaction with PDGF” value in data set [1] (setting [8]) was “synergistic”. The “effect together with PDGF compared with forskolin and PDGF” value in [1] (with PDGF, pulsatile, Fig. 6 b) was “as effective as forskolin and PDGF”. In the data set with macrophages, the cAMP in macrophages entry was “increase cAMP levels in macrophages”.
Regarding cholera toxin, in the data set on Schwann cells, the “potentiation of response” value is reported as “greatly potentiated”.
For glial growth factor [GGF], the “promotion of Schwann cell proliferation” value in the data set with Schwann cells is listed as “promote the proliferation”. In the data set on Schwann cells (ref Davis and Stroobant, 1990, Goodearl et al., 1993, Marchionni et al.), the “mitogenicity without forskolin / enhancement of GGF effect” value is given as “is a mitogen without forskolin”.
As for peptide histidine-isoleucine [PHI], in [6], the “dependence of cAMP effect on culture age” value was “only seen in the older cultures”.
In the case of “vasoactive intestinal peptide (HSDAVFTDNYTRLRKQMAVKKYLNSILN; ends and bridges not checked; UniProt P01282 125-152, looked up) [VIP]”, the “dependence of cAMP effect on culture age” value in [6] was “only seen in the older cultures”. Besides, in the data set on cultured Schwann cells, the “plateau of cAMP effect” value is “did not plateau even at 10-4 M”. The cAMP in macrophages result with macrophages is on record as “increase cAMP levels in macrophages”.

B1: PDGF: Recombinant human PDGF-BB purchased from R&D Systems (protein, UniProt P01127 82-190, looked up)
Platelet-derived growth …: SLGSLTIAEPAMIAECKTRTEVFEISRRLIDRTNANFLVWPPCVEVQRCSGCCNNRNVQCRPTQVQLRPVQVRKIEIVRKKPIFKKATVTLEDHLACKCETVAAARPVT
B1: in the data set with Schwann cells, the “promotion of Schwann cell proliferation” value is recorded as “promote the proliferation”. Further, in [3] (PDGF alone), the doubling time was 10 days. In addition, in data set [3] (defined medium with PDGF alone (before forskolin), Discussion), the “Schwann cells incorporating BrdU in 24 h” value was 10%.
